Legend:
Assay in all cases: Kinase panel study
Type in all cases: biochemical
Details in all cases: read-out: Percentage of inhibition; for inhibition at 1 µM: 1000nM; for inhibition at 10 µM: 10000nM
LRRK2 I2020T = target: T1, LRRK2 I2020T (Homo sapiens, UniProt Q5S007, I2020T)
T1 construct: purchased Thermo Fisher Scientific
Summary of the method: (§1)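 Percent inhibition of each kinase by the test compound, given at either 1 µM or 10 µM, came from a contracted panel run by ZLyte or Adapta protocol.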

TYRO3 (RSE) = target: T2, TYRO3 (RSE) (Homo sapiens, UniProt Q06418)
T2 construct: purchased Thermo Fisher Scientific
T2 sequence (Q06418 41-890): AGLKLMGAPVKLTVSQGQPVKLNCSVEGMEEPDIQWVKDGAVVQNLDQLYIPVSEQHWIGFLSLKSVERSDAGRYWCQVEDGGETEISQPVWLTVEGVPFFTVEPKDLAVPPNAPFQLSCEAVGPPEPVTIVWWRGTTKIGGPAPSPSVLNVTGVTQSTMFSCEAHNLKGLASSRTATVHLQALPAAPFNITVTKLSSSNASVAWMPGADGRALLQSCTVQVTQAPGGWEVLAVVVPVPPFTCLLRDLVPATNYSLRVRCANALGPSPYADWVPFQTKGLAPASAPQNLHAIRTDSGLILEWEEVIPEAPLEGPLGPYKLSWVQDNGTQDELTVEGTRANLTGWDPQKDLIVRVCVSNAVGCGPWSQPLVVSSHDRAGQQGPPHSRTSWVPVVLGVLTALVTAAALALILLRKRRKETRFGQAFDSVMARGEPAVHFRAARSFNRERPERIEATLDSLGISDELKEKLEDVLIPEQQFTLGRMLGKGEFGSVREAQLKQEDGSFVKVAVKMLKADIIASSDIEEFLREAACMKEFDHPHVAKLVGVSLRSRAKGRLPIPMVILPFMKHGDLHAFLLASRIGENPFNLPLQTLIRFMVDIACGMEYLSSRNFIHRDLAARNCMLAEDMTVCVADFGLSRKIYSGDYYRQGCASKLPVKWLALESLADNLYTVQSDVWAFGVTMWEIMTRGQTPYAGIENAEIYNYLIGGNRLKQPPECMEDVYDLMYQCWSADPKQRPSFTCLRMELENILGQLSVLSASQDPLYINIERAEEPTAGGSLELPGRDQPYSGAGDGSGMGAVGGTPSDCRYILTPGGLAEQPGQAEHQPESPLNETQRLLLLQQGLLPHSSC
Summary of the method: as §1

EPHB1 = target: T3, EPHB1 (Homo sapiens, UniProt P54762)
T3 construct: purchased Thermo Fisher Scientific
T3 sequence (P54762 18-984): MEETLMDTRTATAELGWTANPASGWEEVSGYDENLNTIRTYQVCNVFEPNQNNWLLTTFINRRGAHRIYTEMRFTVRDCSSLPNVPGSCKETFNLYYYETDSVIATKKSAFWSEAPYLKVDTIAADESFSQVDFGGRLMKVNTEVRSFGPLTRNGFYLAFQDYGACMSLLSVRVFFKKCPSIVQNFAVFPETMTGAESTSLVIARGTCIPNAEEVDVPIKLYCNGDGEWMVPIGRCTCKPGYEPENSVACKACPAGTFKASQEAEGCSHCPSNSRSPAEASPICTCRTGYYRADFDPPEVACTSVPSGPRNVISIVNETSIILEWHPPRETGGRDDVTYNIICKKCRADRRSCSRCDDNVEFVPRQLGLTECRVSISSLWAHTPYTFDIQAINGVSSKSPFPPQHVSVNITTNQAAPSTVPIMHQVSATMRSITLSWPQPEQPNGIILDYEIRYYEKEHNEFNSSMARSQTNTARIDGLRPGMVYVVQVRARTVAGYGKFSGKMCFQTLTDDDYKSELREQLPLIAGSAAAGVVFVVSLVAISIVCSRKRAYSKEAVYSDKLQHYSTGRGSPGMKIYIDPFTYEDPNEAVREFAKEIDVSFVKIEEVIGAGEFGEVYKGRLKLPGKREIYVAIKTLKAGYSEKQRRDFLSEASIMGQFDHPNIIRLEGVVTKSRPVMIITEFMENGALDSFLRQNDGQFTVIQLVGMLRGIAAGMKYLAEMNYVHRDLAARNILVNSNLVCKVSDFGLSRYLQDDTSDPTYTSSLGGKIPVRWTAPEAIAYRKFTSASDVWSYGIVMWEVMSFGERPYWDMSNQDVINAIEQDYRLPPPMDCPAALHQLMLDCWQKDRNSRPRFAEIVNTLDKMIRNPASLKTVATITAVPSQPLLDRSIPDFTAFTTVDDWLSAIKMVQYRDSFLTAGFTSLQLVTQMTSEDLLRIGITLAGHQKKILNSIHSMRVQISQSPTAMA
Summary of the method: as §1

SPHK1 = target: T4, SPHK1 (Homo sapiens, UniProt Q9NYA1)
T4 construct: purchased Thermo Fisher Scientific
T4 sequence (Q9NYA1 whole entry): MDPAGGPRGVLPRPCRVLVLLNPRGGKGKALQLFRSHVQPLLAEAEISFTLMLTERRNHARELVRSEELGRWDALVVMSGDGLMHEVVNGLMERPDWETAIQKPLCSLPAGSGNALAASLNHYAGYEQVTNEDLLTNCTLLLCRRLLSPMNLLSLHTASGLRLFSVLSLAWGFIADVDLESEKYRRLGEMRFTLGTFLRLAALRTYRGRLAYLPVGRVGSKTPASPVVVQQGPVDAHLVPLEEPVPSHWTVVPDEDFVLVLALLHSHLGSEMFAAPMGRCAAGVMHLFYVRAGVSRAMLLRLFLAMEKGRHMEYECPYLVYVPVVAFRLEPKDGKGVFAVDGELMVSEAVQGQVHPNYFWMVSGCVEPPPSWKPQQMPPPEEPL
Summary of the method: as §1

MET (cMet) Y1235D = target: T5, MET (cMet) Y1235D (Homo sapiens, UniProt P08581, Y1235D)
T5 construct: purchased Thermo Fisher Scientific
T5 sequence (P08581 25-1390 Y1235D): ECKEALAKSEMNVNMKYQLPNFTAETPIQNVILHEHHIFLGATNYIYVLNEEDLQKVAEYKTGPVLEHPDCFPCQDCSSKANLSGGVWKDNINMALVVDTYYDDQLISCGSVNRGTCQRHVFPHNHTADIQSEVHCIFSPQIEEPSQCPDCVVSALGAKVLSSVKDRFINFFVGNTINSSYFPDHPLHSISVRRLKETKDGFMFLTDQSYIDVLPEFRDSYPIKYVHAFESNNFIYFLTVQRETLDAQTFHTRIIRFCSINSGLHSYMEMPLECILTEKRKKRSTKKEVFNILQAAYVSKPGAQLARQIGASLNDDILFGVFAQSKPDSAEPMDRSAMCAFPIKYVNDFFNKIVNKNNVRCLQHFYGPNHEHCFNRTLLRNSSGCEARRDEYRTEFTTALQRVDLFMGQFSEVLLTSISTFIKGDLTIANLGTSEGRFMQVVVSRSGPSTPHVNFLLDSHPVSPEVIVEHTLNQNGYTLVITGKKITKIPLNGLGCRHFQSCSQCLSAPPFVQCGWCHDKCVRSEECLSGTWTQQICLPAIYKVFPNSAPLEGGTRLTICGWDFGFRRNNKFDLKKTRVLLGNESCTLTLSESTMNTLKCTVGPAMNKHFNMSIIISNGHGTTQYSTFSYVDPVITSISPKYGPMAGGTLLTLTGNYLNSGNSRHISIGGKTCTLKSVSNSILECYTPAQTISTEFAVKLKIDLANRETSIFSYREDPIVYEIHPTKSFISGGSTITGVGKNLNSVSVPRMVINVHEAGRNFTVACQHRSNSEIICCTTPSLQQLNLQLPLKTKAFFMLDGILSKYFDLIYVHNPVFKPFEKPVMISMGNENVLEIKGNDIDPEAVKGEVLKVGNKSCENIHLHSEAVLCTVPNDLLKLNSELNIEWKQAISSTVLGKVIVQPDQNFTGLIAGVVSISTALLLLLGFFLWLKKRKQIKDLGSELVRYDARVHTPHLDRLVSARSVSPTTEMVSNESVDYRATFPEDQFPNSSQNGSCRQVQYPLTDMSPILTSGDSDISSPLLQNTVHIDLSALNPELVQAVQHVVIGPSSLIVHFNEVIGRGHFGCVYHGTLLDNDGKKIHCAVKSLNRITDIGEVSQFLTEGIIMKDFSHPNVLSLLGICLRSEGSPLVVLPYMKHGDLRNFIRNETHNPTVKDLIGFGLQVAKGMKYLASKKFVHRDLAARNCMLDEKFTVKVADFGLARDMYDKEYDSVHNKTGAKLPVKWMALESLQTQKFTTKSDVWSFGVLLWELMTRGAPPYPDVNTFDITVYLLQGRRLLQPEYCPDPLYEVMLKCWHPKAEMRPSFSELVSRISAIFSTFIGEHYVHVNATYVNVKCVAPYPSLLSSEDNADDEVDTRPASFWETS
Summary of the method: as §1

T1 sequence (Q5S007 970-2527 I2020T limits assumed): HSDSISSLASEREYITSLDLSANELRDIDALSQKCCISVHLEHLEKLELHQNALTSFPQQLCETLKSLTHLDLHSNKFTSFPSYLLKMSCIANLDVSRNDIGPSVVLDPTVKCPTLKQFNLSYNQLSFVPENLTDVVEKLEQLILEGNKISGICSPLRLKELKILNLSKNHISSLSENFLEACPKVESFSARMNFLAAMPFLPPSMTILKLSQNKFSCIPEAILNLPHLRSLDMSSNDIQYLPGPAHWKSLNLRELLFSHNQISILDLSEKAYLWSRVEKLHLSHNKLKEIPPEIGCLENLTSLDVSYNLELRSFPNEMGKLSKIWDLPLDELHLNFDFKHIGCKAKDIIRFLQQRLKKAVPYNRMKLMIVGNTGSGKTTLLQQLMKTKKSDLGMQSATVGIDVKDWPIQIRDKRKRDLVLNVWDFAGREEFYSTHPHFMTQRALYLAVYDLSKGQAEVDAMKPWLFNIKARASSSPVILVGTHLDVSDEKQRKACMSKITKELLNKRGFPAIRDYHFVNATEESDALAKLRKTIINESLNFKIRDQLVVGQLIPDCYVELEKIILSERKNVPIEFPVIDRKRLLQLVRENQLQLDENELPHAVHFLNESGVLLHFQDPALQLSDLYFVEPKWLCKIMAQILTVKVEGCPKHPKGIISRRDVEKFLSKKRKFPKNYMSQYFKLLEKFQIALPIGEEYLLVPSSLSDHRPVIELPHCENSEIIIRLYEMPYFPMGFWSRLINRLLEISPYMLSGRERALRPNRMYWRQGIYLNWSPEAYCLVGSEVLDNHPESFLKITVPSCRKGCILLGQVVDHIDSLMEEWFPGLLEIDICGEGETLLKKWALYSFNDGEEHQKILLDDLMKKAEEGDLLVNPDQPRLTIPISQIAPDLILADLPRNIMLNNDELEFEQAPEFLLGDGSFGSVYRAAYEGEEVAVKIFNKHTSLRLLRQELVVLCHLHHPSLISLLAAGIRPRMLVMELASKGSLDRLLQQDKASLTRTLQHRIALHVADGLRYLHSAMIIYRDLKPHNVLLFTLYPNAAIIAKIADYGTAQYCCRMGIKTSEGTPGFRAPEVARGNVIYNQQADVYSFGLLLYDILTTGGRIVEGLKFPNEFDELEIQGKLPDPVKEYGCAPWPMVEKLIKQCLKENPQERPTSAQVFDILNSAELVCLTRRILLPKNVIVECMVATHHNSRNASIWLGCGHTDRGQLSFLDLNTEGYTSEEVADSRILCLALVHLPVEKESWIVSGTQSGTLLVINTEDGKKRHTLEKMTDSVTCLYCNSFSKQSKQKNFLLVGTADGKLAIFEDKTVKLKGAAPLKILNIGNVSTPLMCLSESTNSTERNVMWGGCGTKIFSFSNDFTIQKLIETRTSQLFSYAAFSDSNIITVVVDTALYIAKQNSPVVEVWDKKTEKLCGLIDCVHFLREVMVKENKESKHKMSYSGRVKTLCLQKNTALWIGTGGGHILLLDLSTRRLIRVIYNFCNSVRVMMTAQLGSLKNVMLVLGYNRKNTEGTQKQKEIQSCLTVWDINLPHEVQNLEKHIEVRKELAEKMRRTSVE

Row | Structure (SMILES) | inhibition at 1 µM (LRRK2 I2020T) [%] | inhibition at 10 µM (LRRK2 I2020T) [%] | inhibition at 1 µM (TYRO3 (RSE)) [%] | inhibition at 10 µM (TYRO3 (RSE)) [%] | inhibition at 1 µM (EPHB1) [%] | inhibition at 10 µM (EPHB1) [%] | inhibition at 1 µM (SPHK1) [%] | inhibition at 10 µM (SPHK1) [%] | inhibition at 1 µM (MET (cMet) Y1235D) [%] | inhibition at 10 µM (MET (cMet) Y1235D) [%]
1 | COc1ccc2c(c1OC)c(=O)n1c3ccc(O)cc3c3ccnc2c31 [MW01, 5-Hydroxy-10,11-dimethoxy-9H-benzo[c]indolo[3,2,1-ij][1,5]naphthyridin-9-one] | 83 | 90 | 11 | 29 | -3 | 9 | -7 | -3 | -2 | 4
2 | COc1ccc2cc3c(N)nn(C(=O)c4cccc(N(C)C)c4)c3nc2c1 [MW05, (3-Amino-7-methoxypyrazolo[3,4-b]quinolin-1-yl)-[3-(dimethylamino)phenyl]methanone] | -3 | 5 | 7 | 2 | -3 | -6 | -2 | 1 | 1 | -44

— patent EP4467141A1, “PYRAZOLO-QUINOLINES AS SELECTIVE INHIBITORS OF GENOTOXIC STRESS-INDUCED IKK/NF- KB PATHWAYS FOR CANCER THERAPY” (Max-Delbrück-Centrum für Molekulare Medizin in der …, priority 2023, dated 2024)
